Results: patent US20220289794A1, “SYNTHETIC ANTIMICROBIAL PEPTIDES” (priority 2019, published 2022)
Values after ≈ are worked out from the molar mass of the structure shown. Non-standard residues stand in square brackets, D forms with d. Residues, ends and D or L forms follow the SMILES beside them. dDip = N[C@@H](C(=O)O)C(c1ccccc1)c1ccccc1; Dip = N[C@H](C(=O)O)C(c1ccccc1)c1ccccc1; 2Nal = N[C@@H](Cc1ccc2ccccc2c1)C(=O)O; d2Nal = N[C@H](Cc1ccc2ccccc2c1)C(=O)O

Key:
[1] = tested on: Pseudomonas aeruginosa (ATCC 27883); conditions: ATCC 27883
in vitro = conditions: human, fresh human red blood cells (washed), pH 7.4
[2] = tested on: Escherichia coli (ATCC 25922); conditions: ATCC 25922
[3] = tested on: Methicillin-resistant Staphylococcus aureus MRSA (ATCC BAA-1556); conditions: ATCC BAA-1556

Row | Compound | MIC P. aeruginosa ATCC 27883 [1] [µg/mL] | HC50 at 0.5 h (in vitro) [µg/mL] | MIC E. coli ATCC 25922 [2] [µg/mL] | MIC MRSA ATCC BAA-1556 [3] [µg/mL]
1 | N=C(N)NCCC[C@@H]1NC(=O)[C@H](CCCNC(=N)N)NC(=O)[C@@H](CCCNC(=N)N)NC(=O)[C@H](CCCNC(=N)N)NC(=O)[C@H](Cc2ccc3ccccc3c2)NC(=O)[C@H](Cc2ccc3ccccc3c2)NC(=O)[C@H](Cc2ccc3ccccc3c2)NC1=O [IFX-079, c[Arg-arg-Arg-Arg-NaI-NaI-NaI]] (cyclo(R[dR]RR[2Nal][2Nal][2Nal])) | 12.5 (≈ 10.3 µM) | 100 | – | –
2 | N=C(N)NCCC[C@@H]1NC(=O)[C@@H](CCCNC(=N)N)NC(=O)[C@H](CCCNC(=N)N)NC(=O)[C@@H](CCCNC(=N)N)NC(=O)[C@@H](Cc2ccc3ccccc3c2)NC(=O)[C@H](Cc2ccc3ccccc3c2)NC(=O)[C@@H](Cc2ccc3ccccc3c2)NC1=O [IFX-083, c[arg-Arg-arg-Arg-naI-NaI-naI]] (cyclo([dR]R[dR]R[d2Nal][2Nal][d2Nal])) | 12.5 (≈ 10.3 µM) | 170 | – | –
3 | N=C(N)NCCC[C@@H]1NC(=O)[C@@H](CCCNC(=N)N)NC(=O)[C@H](CCCNC(=N)N)NC(=O)[C@@H](CCCNC(=N)N)NC(=O)[C@@H](C(c2ccccc2)c2ccccc2)NC(=O)[C@H](C(c2ccccc2)c2ccccc2)NC(=O)[C@@H](C(c2ccccc2)c2ccccc2)NC1=O [IFX-069, c[arg-Arg-arg-Arg-dip-Dip-dip]] (cyclo([dR]R[dR]R[dDip][Dip][dDip])) | 6.2 (≈ 4.79 µM) | 200 | – | –
4 | N=C(N)NCCC[C@H]1NC(=O)[C@@H](CCCNC(=N)N)NC(=O)[C@@H](CCCNC(=N)N)NC(=O)[C@@H](Cc2ccc3ccccc3c2)NC(=O)[C@@H](Cc2ccc3ccccc3c2)NC(=O)[C@@H](Cc2ccc3ccccc3c2)NC(=O)[C@@H](CCCNC(=N)N)NC1=O [IFX-081, c[arg-arg-arg-arg-naI-naI-naI]] (cyclo([dR][dR][dR][dR][d2Nal][d2Nal][d2Nal])) | 50 (≈ 41.1 µM) | 200 | – | –
5 | N=C(N)NCCC[C@@H]1NC(=O)[C@H](Cc2ccc3ccccc3c2)NC(=O)[C@H](Cc2ccc3ccccc3c2)NC(=O)[C@H](Cc2ccc3ccccc3c2)NC(=O)[C@H](CCCNC(=N)N)NC(=O)[C@@H](CCCNC(=N)N)NC(=O)[C@H](CCCNC(=N)N)NC1=O [IFX-078, c[Arg-Arg-arg-Arg-NaI-NaI-NaI]] (cyclo(RR[dR]R[2Nal][2Nal][2Nal])) | 12.5 (≈ 10.3 µM) | 95 | – | –
6 | N=C(N)NCCC[C@@H]1NC(=O)[C@H](CCCNC(=N)N)NC(=O)[C@H](CCCNC(=N)N)NC(=O)[C@@H](C(c2ccccc2)c2ccccc2)NC(=O)[C@@H](C(c2ccccc2)c2ccccc2)NC(=O)[C@@H](C(c2ccccc2)c2ccccc2)NC(=O)[C@H](CCCNC(=N)N)NC1=O [IFX-072, c[Arg-Arg-Arg-Arg-dip-dip-dip]] (cyclo(RRRR[dDip][dDip][dDip])) | 12.5 (≈ 9.66 µM) | 265 | – | –

The next lines start with the values.

Row | MIC P. aeruginosa ATCC 27883 [1] [µg/mL] | HC50 at 0.5 h (in vitro) [µg/mL] | MIC E. coli ATCC 25922 [2] [µg/mL] | MIC MRSA ATCC BAA-1556 [3] [µg/mL] | Compound
7 | 12.5 (≈ 10.3 µM) | 145 | – | – | N=C(N)NCCC[C@H]1NC(=O)[C@H](Cc2ccc3ccccc3c2)NC(=O)[C@H](Cc2ccc3ccccc3c2)NC(=O)[C@H](Cc2ccc3ccccc3c2)NC(=O)[C@@H](CCCNC(=N)N)NC(=O)[C@@H](CCCNC(=N)N)NC(=O)[C@@H](CCCNC(=N)N)NC1=O [IFX-087, c[arg-arg-arg-arg-NaI-NaI-NaI]] (cyclo([dR][dR][dR][dR][2Nal][2Nal][2Nal]))
8 | 12.5 (≈ 10.3 µM) | 155 | – | – | N=C(N)NCCC[C@@H]1NC(=O)[C@H](CCCNC(=N)N)NC(=O)[C@H](CCCNC(=N)N)NC(=O)[C@@H](Cc2ccc3ccccc3c2)NC(=O)[C@@H](Cc2ccc3ccccc3c2)NC(=O)[C@@H](Cc2ccc3ccccc3c2)NC(=O)[C@H](CCCNC(=N)N)NC1=O [IFX-086, c[Arg-Arg-Arg-Arg-naI-naI-naI]] (cyclo(RRRR[d2Nal][d2Nal][d2Nal]))
9 | 32 (≈ 26.5 µM) | 200 | 16 (≈ 13.3 µM) | – | N=C(N)NCCC[C@@H]1NC(=O)[C@H](CCCNC(=N)N)NC(=O)[C@@H](CCCNC(=N)N)NC(=O)[C@@H](CCCNC(=N)N)NC(=O)[C@@H](Cc2ccc3ccccc3c2)NC(=O)[C@@H](Cc2ccc3ccccc3c2)NC(=O)[C@@H](Cc2c[nH]c3ccccc23)NC1=O [IFX-119, c[arg-arg-Arg-Arg-trp-naI-naI]] (cyclo([dR][dR]RR[dW][d2Nal][d2Nal]))
10 | 32 (≈ 26.5 µM) | 190 | 32 (≈ 26.5 µM) | – | N=C(N)NCCC[C@@H]1NC(=O)[C@H](CCCNC(=N)N)NC(=O)[C@@H](CCCNC(=N)N)NC(=O)[C@@H](CCCNC(=N)N)NC(=O)[C@@H](Cc2ccc3ccccc3c2)NC(=O)[C@@H](Cc2ccc3ccccc3c2)NC(=O)[C@H](Cc2c[nH]c3ccccc23)NC1=O [IFX-117, c[arg-arg-Arg-Arg-Trp-naI-naI]] (cyclo([dR][dR]RRW[d2Nal][d2Nal]))
11 | 32 (≈ 26.5 µM) | 285 | 16 (≈ 13.3 µM) | 3.1 (≈ 2.57 µM) | N=C(N)NCCC[C@H]1NC(=O)[C@@H](CCCNC(=N)N)NC(=O)[C@@H](CCCNC(=N)N)NC(=O)[C@@H](Cc2ccc3ccccc3c2)NC(=O)[C@@H](Cc2c[nH]c3ccccc23)NC(=O)[C@@H](Cc2ccc3ccccc3c2)NC(=O)[C@@H](CCCNC(=N)N)NC1=O [IFX-142, c[arg-arg-arg-arg-naI-trp-naI]] (cyclo([dR][dR][dR][dR][d2Nal][dW][d2Nal]))
12 | 16 (≈ 13.3 µM) | 210 | 16 (≈ 13.3 µM) | 3.1 (≈ 2.57 µM) | N=C(N)NCCC[C@@H]1NC(=O)[C@H](CCCNC(=N)N)NC(=O)[C@@H](Cc2ccc3ccccc3c2)NC(=O)[C@@H](Cc2ccc3ccccc3c2)NC(=O)[C@@H](Cc2c[nH]c3ccccc23)NC(=O)[C@@H](CCCNC(=N)N)NC(=O)[C@@H](CCCNC(=N)N)NC1=O [IFX-118, c[Arg-Arg-arg-arg-trp-naI-naI]] (cyclo(RR[dR][dR][dW][d2Nal][d2Nal]))
13 | 32 (≈ 26.5 µM) | 425 | 32 (≈ 26.5 µM) | 6.2 (≈ 5.14 µM) | N=C(N)NCCC[C@@H]1NC(=O)[C@H](CCCNC(=N)N)NC(=O)[C@@H](CCCNC(=N)N)NC(=O)[C@@H](CCCNC(=N)N)NC(=O)[C@H](Cc2ccc3ccccc3c2)NC(=O)[C@H](Cc2ccc3ccccc3c2)NC(=O)[C@@H](Cc2c[nH]c3ccccc23)NC1=O [IFX-121, c[arg-arg-Arg-Arg-trp-NaI-NaI]] (cyclo([dR][dR]RR[dW][2Nal][2Nal]))
14 | 32 (≈ 26.5 µM) | 480 | 32 (≈ 26.5 µM) | – | N=C(N)NCCC[C@@H]1NC(=O)[C@H](CCCNC(=N)N)NC(=O)[C@@H](Cc2ccc3ccccc3c2)NC(=O)[C@@H](Cc2ccc3ccccc3c2)NC(=O)[C@H](Cc2c[nH]c3ccccc23)NC(=O)[C@@H](CCCNC(=N)N)NC(=O)[C@@H](CCCNC(=N)N)NC1=O [IFX-116, c[Arg-Arg-arg-arg-Trp-naI-naI]] (cyclo(RR[dR][dR]W[d2Nal][d2Nal]))
15 | 32 (≈ 26.5 µM) | 195 | 32 (≈ 26.5 µM) | – | N=C(N)NCCC[C@@H]1NC(=O)[C@H](Cc2ccc3ccccc3c2)NC(=O)[C@H](Cc2ccc3ccccc3c2)NC(=O)[C@@H](Cc2c[nH]c3ccccc23)NC(=O)[C@@H](CCCNC(=N)N)NC(=O)[C@@H](CCCNC(=N)N)NC(=O)[C@H](CCCNC(=N)N)NC1=O [IFX-120, c[Arg-Arg-arg-arg-trp-NaI-NaI]] (cyclo(RR[dR][dR][dW][2Nal][2Nal]))
